Experimental data as given in patent US20240368050A1, “ENHANCED PERFORMANCE UREASE INHIBITOR, COMPOSITIONS AND METHODS THEREOF” (priority 2023, published 2024).
Like-named read-outs stand apart in the source and are kept apart here.

Tests used:
urease [1] = format: biochemical
urease [2] = assay: Longevity of urea protection by urease inhibitor; details: ~0.1% NBPT; according to the literature and own studies
Source text: Urea can only benefit plants as an aqueous solution, so the protecting urease inhibitor NBPT must be also dissolved and spread along with urea.

[3] = ammonia after 1 week, NBPT (PG, 26.70%, 8 mg) alone or oxidant added per stated mg of NBPT
[4] = ammonia after 3 days, NBPT (PG, 26.70%, 8 mg) alone or oxidant added per stated mg of NBPT

OO [Hydrogen Peroxide, 10%, Hydrogen Peroxide]
Urease Inhibitor Test with additional oxidant components (ammonia ppm), 1 week (urease [1]): 400 ppm
Urease Inhibitor Test with additional oxidant components (ammonia ppm), 3 days (urease [1]): 0.1 ppm

CCCCNP(N)(N)=S [NBPT, N-(n-Butyl)thiophosphoric triamide, reference compound]
Urease Inhibitor Test with additional oxidant components (ammonia ppm), 1 week (urease [1]; [3]): 800 ppm
Urease Inhibitor Test (ammonia ppm), 1 week (urease [1]; ammonia after 1 week, treatment + about 5.0 g urea in 10 mL water on 60 g soil, sealed): 35 ppm
Urease Inhibitor Test (ammonia ppm), 2 weeks (urease [1]; ammonia after 2 weeks, treatment + about 5.0 g urea in 10 mL water on 60 g soil, sealed): 600 ppm
Urease Inhibitor Test with additional oxidant components (ammonia ppm), 3 days (urease [1]; [4]): 5 ppm
Urease Inhibitor Test (ammonia ppm), 3 days (urease [1]; ammonia after 3 days, treatment + about 5.0 g urea in 10 mL water on 60 g soil, sealed): 13 ppm
longevity of urea protection (urease [2]): around one week

CCCCNP(N)(N)=O [NBPTO, oxidized N-(n-Butyl)thiophosphoric triamide]
Urease Inhibitor Test (ammonia ppm), 1 week (urease [1]): 0.6 ppm
Urease Inhibitor Test (ammonia ppm), 2 weeks (urease [1]): 1 ppm
Urease Inhibitor Test (ammonia ppm), 3 weeks (urease [1]): 5 ppm
Urease Inhibitor Test (ammonia ppm), 3 days (urease [1]): 0.05 ppm
urease inhibition increase in comparison with NBPT (urease [1]): up to eight-fold urease inhibition increase

O=S(=O)([O-])OOS(=O)(=O)[O-].[K+].[K+] [Potassium Persulfate]
Urease Inhibitor Test with additional oxidant components (ammonia ppm), 1 week (urease [1]; [3]): 140 ppm
Urease Inhibitor Test with additional oxidant components (ammonia ppm), 3 days (urease [1]; [4]): 1 ppm
